Results published in PMC12921516 (ACS Bio & Med Chem Au, 2025).

Assays:
hPTP1B1–400 = biological target: T1, hPTP1B1–400 (Homo sapiens, UniProt P18031); experiment: PTP1B inhibition, pNPP hydrolysis, long form; assay type: biochemical; settings: pNPP substrate, 15 min 37 °C, pH 6.8; ± S.D
T1 construct: h PTP1B 1–400 IC 50 (μM ± S.D); made in house
T1 sequence (P18031 1-400): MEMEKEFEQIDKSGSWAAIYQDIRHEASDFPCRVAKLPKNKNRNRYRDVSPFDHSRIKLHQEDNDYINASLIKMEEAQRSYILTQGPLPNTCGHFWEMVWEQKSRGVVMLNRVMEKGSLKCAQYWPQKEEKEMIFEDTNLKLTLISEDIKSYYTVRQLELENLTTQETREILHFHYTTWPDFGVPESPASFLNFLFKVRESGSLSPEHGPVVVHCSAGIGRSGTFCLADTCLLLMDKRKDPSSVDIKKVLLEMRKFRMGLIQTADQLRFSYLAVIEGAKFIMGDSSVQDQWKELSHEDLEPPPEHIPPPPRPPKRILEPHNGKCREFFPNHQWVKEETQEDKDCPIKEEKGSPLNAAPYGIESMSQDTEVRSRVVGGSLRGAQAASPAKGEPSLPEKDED
Description: The inhibitory activity of PTP1B was assessed using the long form of the PTP1B enzyme (hPTP1B1–400). This enzyme comprises a highly conserved N-terminal catalytic domain, known as the PTP domain (PTP1B1–300), in addition to an intrinsically disordered regulatory domain (PTP1B301–400).
The IC50 values obtained from these tests are detailed in Table .
Aliquots of 0–10 μL of the test compounds (triplicate) were taken and incubated for 15 min at 37 °C with 85 μL of Tris buffer solution (50 mM, pH 6.8) containing PTP1B enzyme and 5 μL of p-nitrophenyl phosphate substrate (pNPP, 10 mM). The absorbance of the hydrolysis product, p-nitrophenol (pNP), was measured at 405 nm using a 96-microplate absorbance reader (Accuris SmartReader 96). The inhibitory activity was determined according to eq . %enzyme=(A405b/A405c)×100 1 Where: % enzyme is the percentage of inhibition for PTP1B or TCPTP
The IC50 was calculated using regression analysis, eq : %inhibition=A100/1+(I/IC50)^s 2 Where: A100: Maximum inhibition

[1] = tested on: STZ-induced diabetic rats; settings: earlier study of the group; cited from earlier work
HepG2 cells = experiment: Western blotting, HepG2 normal model; assay type: cell-based, human; settings: 24 h
Description: (§1) HepG2 cells were obtained directly from ATCC (HB-8065) and cultured in DMEM with low glucose, supplemented with fetal bovine serum, 100 U/mL penicillin G, and […] streptomycin. The media was freshly prepared and sterilized by filtration. Cells were maintained with a maximum of 10 passages before being discarded. For cell counting, the cells were washed twice with phosphate-buffered saline (PBS), trypsinized, and counted using a Neubauer chamber. For the insulin-resistant model, 75,000 cells per well were seeded in 6-well plates at 37 °C in 5% CO2 and cultured for 72 h. Subsequently, insulin (0.1 μM) was added to induce insulin resistance for 24 h. After this period, inhibitors were incubated for 24 h, followed by a final 30 min insulin stimulation (0.1 μM) before protein extraction. For the normal model, 75,000 cells per well were seeded in 6-well plates at 37 °C in 5% CO2 and cultured for 96 h. After that, the cells were incubated with the inhibitors for 24 h, followed by protein extraction.
(§2) Treated cells were washed twice with 1 mL of PBS, and proteins were extracted using 300 μL of a buffer solution containing 10% sodium deoxycholate in 10% TEAB, supplemented with a protease and phosphatase inhibitor cocktail. The extracts were heated at 80 °C for 5 min and dissociated by repeated passages through an insulin syringe. The cell extracts were centrifuged at 15,000 rpm for 15 min at 4 °C, and the supernatant was collected. Protein quantification was performed using the bicinchoninic acid assay, and aliquots were prepared for Western blotting. SDS-PAGE was conducted, and proteins were transferred onto a nitrocellulose membrane. The membrane was blocked with 10% skim milk in TBST for 1 h and incubated overnight with primary antibodies (1:400 dilution). Secondary antibodies conjugated to horseradish peroxidase were diluted 1:2,000, and the membranes were incubated for 1 h at room temperature. Blots were visualized using the ChemiDoc MP (Bio-Rad), and densitometric analysis was performed with ImageJ (U.S. National Institutes of Health). Statistical analyses were conducted using GraphPad Prism 8.0.
compounds at 24 h of treatment. β-actin was employed as loading control. b) Densitometric analysis of western blot images
employing ImageJ analysis software. Bar graphs represent the mean ± SEM of normalized values. The control levels were set to
1. Asterisks indicate statistical significance according to the Dunn test. p* < 0.05
(§3) (1 picture or pasted object on this page, not shown here)

[2] = tested on: insulin-resistant HepG2 cells; experiment: Western blotting, insulin-resistant HepG2 model; assay type: cell-based, human; settings: 24 h
Description: as §1, §2
resistance model in HepG2 cells . a) Western blotting representative analysis (n=3) of PTP1B, p -AKT, p-IRS1 and p-STAT3 levels
of HepG2 cells treated with the compounds at 24 h of treatment. β-actin was employed as loading control. b) Densitometric
analysis of western blot images employing ImageJ analysis software. Bar graphs represent the mean ± SEM of normalized values.
The control levels were set to 1. Asterisks indicate statistical significance according to the Dunn test. p* < 0.05.
as §3

normoglycemic CD1 mice = experiment: Oral glucose tolerance test (OGTT); assay type: in vivo; settings: 45 mg/kg, glucose 2 g/kg
Description: The studies were carried out on compounds 4b, 4g, and 5g using both normoglycemic CD1 mice and a mouse model of noninsulin-dependent diabetes mellitus (NIDDM). An oral glucose tolerance test (OGTT) was conducted on the normoglycemic mice to evaluate the hypoglycemic activity of the compounds, while an insulin tolerance test (ITT) was performed on hyperglycemic CD1 mice to assess the compounds’ capacity to enhance insulin sensitivity in streptozotocin-induced diabetic mice. Pioglitazone and GA were included as positive controls.
Healthy six-week-old male CD-1 mice, weighing between 30 and 40 g, were maintained at a temperature of 25 ± 2 °C, under a 12-h light/dark cycle and 45–65% humidity throughout the experimental period. The mice were provided with a rodent pelleted diet (Harlan Laboratories, Indianapolis, USA) and had access to water ad libitum. Sixteen hours before the experiment, all mice were fasted but still had free access to water. All animal procedures were conducted in accordance with the Mexican Federal Regulations for Animal Experimentation and Care (SAGARPA, NOM-062-ZOO-1999, Mexico) and received approval from the Institutional Animal Care and Use Committee, following guidelines outlined in the US National Institutes of Health publication (No. 85–23, revised 1985).
Animals were categorized into five groups, each consisting of four mice (n = 4). The experimental groups received an oral suspension of compounds 4b, 4g, and 5g, prepared in a 10% Tween 20/water solution, at a dosage of 50 mg/kg body weight. A control group was treated with only the 10% Tween 20 solution. The final group was administered pioglitazone at a dose of 45 mg/kg, which is recognized as a reference drug for insulin sensitization. To evaluate glucose levels, blood samples were collected from the tails of the mice at 0, 30, 60, 90, and 120 min after the administration of the vehicle, test compound, or drug. Blood glucose concentration was measured using a commercial glucometer (Accu-Chek, Performa; Roche) and the enzymatic glucose dehydrogenase method. The percentage variation in glycemia was calculated by comparing the selected postadministration glycemia (G x ) with the initial value (G0) using the following formula: %variationofglycemia=[(Gx−G0)/G0]×100 where G0 represents the initial glycemia values and Gx indicates the glycemia values at +30, + 60, + 90, and +120 min, respectively.
To determine the hypoglycemic effect of the compounds on nondiabetic animals, the compounds 4b, 4g, and 5g were administered intragastrically. Pioglitazone was used as a positive control. After 30 min, five mice/group (CD-1) were subjected to OGTT. The test was performed using glucose (2 g/kg) as substrate.

[3] = tested on: STZ-induced diabetic CD-1 mice; experiment: Insulin tolerance test (ITT); assay type: in vivo; settings: 45 mg/kg, insulin 0.75 IU after 30 min
Description: The studies were carried out on compounds 4b, 4g, and 5g using both normoglycemic CD1 mice and a mouse model of noninsulin-dependent diabetes mellitus (NIDDM). An oral glucose tolerance test (OGTT) was conducted on the normoglycemic mice to evaluate the hypoglycemic activity of the compounds, while an insulin tolerance test (ITT) was performed on hyperglycemic CD1 mice to assess the compounds' capacity to enhance insulin sensitivity in streptozotocin-induced diabetic mice. Pioglitazone and GA were included as positive controls. […] Healthy six-week-old male CD-1 mice, weighing between 30 and 40 g, were maintained at a temperature of 25 ± 2 °C, under a 12-h light/dark cycle and 45-65% humidity throughout the experimental period. The mice were provided with a rodent pelleted diet (Harlan Laboratories, Indianapolis, USA) and had access to water ad libitum. Sixteen hours before the experiment, all mice were fasted but still had free access to water. All animal procedures were conducted in accordance with the Mexican Federal Regulations for Animal Experimentation and Care (SAGARPA, NOM-062-ZOO-1999, Mexico) and received approval from the Institutional Animal Care and Use Committee, following guidelines outlined in the US National Institutes of Health publication (No. 85-23, revised 1985). Streptozotocin (STZ) was dissolved in citrate buffer (pH 4.5), while nicotinamide was dissolved in a normal physiological saline solution. The noninsulin-dependent diabetes (NIDD) mouse model was induced in overnight-fasted mice through a single intraperitoneal injection of STZ (100 mg/kg). Nicotinamide was administered 15 min prior, at a dose of 20 mg/kg via intraperitoneal injection. […] Roche). […] Animals were categorized into five groups, each consisting of four mice (n = 4). The experimental groups received an oral suspension of compounds 4b, 4g, and 5g, prepared in a 10% Tween 20/water solution, at a dosage of 50 mg/kg body weight. A control group was treated with only the 10% Tween 20 solution. The final group was administered pioglitazone at a dose of 45 mg/kg, which is recognized as a reference drug for insulin sensitization. To evaluate glucose levels, blood samples were collected from the tails of the mice at 0, 30, 60, 90, and 120 min after the administration of the vehicle, test compound, or drug. Blood glucose concentration was measured using a commercial glucometer (Accu-Chek, Performa; Roche) and the enzymatic glucose dehydrogenase method. The percentage variation in glycemia was calculated by comparing the selected postadministration glycemia (G x ) with the initial value (G0) using the following formula: %[…]=[(Gx-G0)/G0]×100 where G0 represents the initial glycemia values and Gx indicates the glycemia values at +30, + 60, + 90, and +120 min, respectively. To evaluate the ability of GA derivatives to enhance insulin sensitivity in STZ-induced diabetic CD-1 mice, compounds 4b, 4g, and 5g were tested. Glycyrrhetinic acid (GA) and Pioglitazone served as positive controls. The GA derivatives and the positive controls were administered to the diabetic animals, followed by the administration of human rapid-acting insulin (0.75 IU) after 30 min. Subsequently, glucose levels were measured every 15 min.

## Cc1ccc(-n2ncc3c2C(C)(C)[C@@H]2CC[C@]4(C)[C@H](C(=O)C=C5[C@@H]6C[C@@](C)(C(=O)O)CC[C@]6(C)CC[C@]54C)[C@@]2(C)C3)cc1 [FC-122, reference compound]
hPTP1B1–400
  IC50: 2140 ± 150 nM
[1]
  antihyperglycemic effects: superior antihyperglycemic effects compared to glibenclamide and acarbose, but did not outperform pioglitazone

## CN(C)C(=N)N=C(N)N [Metformin]
HepG2 cells
  AKT phosphorylation (p-AKT) levels: notable increase
  PTP1B levels: neither metformin, ursolic acid, nor the GA derivatives significantly reduced PTP1B levels
[2]
  AKT phosphorylation (p-AKT) levels: notable increase
  PTP1B levels: neither metformin, ursolic acid, nor the GA derivatives significantly reduced PTP1B levels

## CCc1ccc(CCOc2ccc(CC3SC(=O)NC3=O)cc2)nc1 (centres unmarked) [Pioglitazone, reference compound]
Normoglycemic CD1 mice
  hypoglycemic effect in OGTT: the most significant reduction in the hyperglycemic peak
[3]
  glycemia variation in ITT: markedly decrease glycemia variation
